In the supplement of paper PMC10307832:

What was measured:
Experiment in all cases: relative viability (nuclei count vs DMSO), 5 days (fraction); higher = more cells survive
RAF265 + Pictilisib = compound: Cn1c(Nc2ccc(C(F)(F)F)cc2)nc2cc(Oc3ccnc(-c4ncc(C(F)(F)F)[nH]4)c3)ccc21 [RAF265] + CS(=O)(=O)N1CCN(Cc2cc3nc(-c4cccc5[nH]ncc45)nc(N4CCOCC4)c3s2)CC1 [Pictilisib] (partner 1 µM)
Procedure, shortened: (§1)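 Relative viability equals treated-well nuclei counts divided by vehicle-well nuclei counts. Counts came from 4× images of lung cancer cell lines grown in 1536-well plates for 5 days after pin-tool dosing on the day after seeding. Dosing used one drug alone or a fixed anchor-drug dose plus five library-drug doses (not always all listed) in √10 steps, and values are medians of duplicate plates.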

IPA-3 + Tozasertib = compound: C1=CC=C2C(=C1)C=CC(=C2SSC3=C(C=CC4=CC=CC=C43)O)O [IPA-3] + Cc1cc(Nc2cc(N3CCN(C)CC3)nc(Sc3ccc(NC(=O)C4CC4)cc3)n2)n[nH]1 [Tozasertib] (partner 0.1 µM)
Procedure, shortened: as §1

RAF265 + Bortezomib = compound: Cn1c(Nc2ccc(C(F)(F)F)cc2)nc2cc(Oc3ccnc(-c4ncc(C(F)(F)F)[nH]4)c3)ccc21 [RAF265] + CC(C)C[C@H](NC(=O)[C@H](Cc1ccccc1)NC(=O)c1cnccn1)B(O)O [Bortezomib] (partner 0.002 µM)
Procedure, shortened: as §1

RAF265 + Olaparib = compound: Cn1c(Nc2ccc(C(F)(F)F)cc2)nc2cc(Oc3ccnc(-c4ncc(C(F)(F)F)[nH]4)c3)ccc21 [RAF265] + O=C(c1cc(Cc2n[nH]c(=O)c3ccccc23)ccc1F)N1CCN(C(=O)C2CC2)CC1 [Olaparib] (partner 8 µM)
Procedure, shortened: as §1

Row | Cell Line | relative viability (RAF265 + Pictilisib; first compound 0.01 µM) | relative viability (RAF265 + Pictilisib; first compound 0.03162 µM) | relative viability (RAF265 + Pictilisib; first compound 0.1 µM) | relative viability (RAF265 + Pictilisib; first compound 0.3162 µM) | relative viability (RAF265 + Pictilisib; first compound 1 µM) | relative viability (IPA-3 + Tozasertib; first compound 0.2 µM) | relative viability (IPA-3 + Tozasertib; first compound 0.6325 µM) | relative viability (IPA-3 + Tozasertib; first compound 2 µM) | relative viability (IPA-3 + Tozasertib; first compound 6.325 µM) | relative viability (IPA-3 + Tozasertib; first compound 20 µM) | relative viability (RAF265 + Bortezomib; first compound 0.01 µM) | relative viability (RAF265 + Bortezomib; first compound 0.03162 µM) | relative viability (RAF265 + Bortezomib; first compound 0.1 µM) | relative viability (RAF265 + Bortezomib; first compound 0.3162 µM) | relative viability (RAF265 + Bortezomib; first compound 1 µM) | relative viability (RAF265 + Olaparib; first compound 0.01 µM) | relative viability (RAF265 + Olaparib; first compound 0.03162 µM) | relative viability (RAF265 + Olaparib; first compound 0.1 µM) | relative viability (RAF265 + Olaparib; first compound 0.3162 µM) | relative viability (RAF265 + Olaparib; first compound 1 µM)
1 | COR-L 105 | 0.487 | 0.316 | 0.383 | 0.292 | 0.307 | 0.335 | 0.463 | 0.32 | 0.403 | 0.342 | 0.902 | 0.771 | 0.647 | 0.442 | 0.56 | 0.727 | 0.618 | 0.703 | 0.772 | 0.485
2 | NCI-H1993 | 0.888 | 0.805 | 0.934 | 0.824 | 0.763 | 0.625 | 0.578 | 0.586 | 0.56 | 0.601 | 1.06 | 0.941 | 1.09 | 1.01 | 0.795 | 1.21 | 1.41 | 1.19 | 1.07 | 0.886
3 | NCI-H1437 | 0.613 | 0.428 | 0.455 | 0.475 | 0.274 | 0.482 | 0.387 | 0.416 | 0.394 | 0.468 | 0.541 | 0.528 | 0.419 | 0.56 | 0.343 | 0.644 | 0.611 | 0.653 | 0.619 | 0.561
4 | NCI-H838 | 0.53 | 0.444 | 0.397 | 0.362 | 0.342 | 0.32 | 0.268 | 0.304 | 0.282 | 0.27 | 0.784 | 0.899 | 0.788 | 0.841 | 0.572 | 0.829 | 0.725 | 0.752 | 0.694 | 0.594
5 | NCI-H1666 | 0.583 | 0.453 | 0.329 | 0.426 | 0.249 | 0.611 | 0.604 | 0.594 | 0.6 | 0.703 | 1.09 | 0.809 | 0.935 | 0.977 | 0.595 | 0.806 | 0.746 | 0.707 | 0.786 | 0.703
6 | NCI-H2023 | 0.243 | 0.212 | 0.272 | 0.152 | 0.214 | 0.321 | 0.347 | 0.365 | 0.39 | 0.424 | 1.07 | 1.08 | 1.07 | 0.786 | 0.794 | 0.491 | 0.452 | 0.544 | 0.524 | 0.374
7 | NCI-H1755 | 0.47 | 0.287 | 0.264 | 0.238 | 0.148 | 0.586 | 0.568 | 0.552 | 0.561 | 0.504 | 1.01 | 0.921 | 0.892 | 0.842 | 0.536 | 0.879 | 0.788 | 0.909 | 0.717 | 0.499
8 | NCI-H23 | 0.545 | 0.429 | 0.393 | 0.245 | 0.206 | 0.506 | 0.367 | 0.432 | 0.38 | 0.354 | 1.21 | 0.937 | 0.606 | 0.621 | 0.353 | 0.363 | 0.24 | 0.294 | 0.271 | 0.186
9 | ABC-1 | 0.808 | 0.58 | 0.608 | 0.525 | 0.458 | 0.18 | 0.183 | 0.19 | 0.188 | 0.185 | 0.308 | 0.321 | 0.278 | 0.284 | 0.303 | 0.919 | 0.649 | 0.952 | 1.07 | 0.791
10 | 201T | 0.717 | 0.7 | 0.685 | 0.564 | 0.552 | 0.99 | 1 | 0.908 | 0.922 | 1.06 | 1.08 | 1.1 | 1.07 | 1.11 | 1.1 | 0.839 | 0.804 | 0.887 | 0.824 | 0.828
11 | NCI-H1734 | 0.479 | 0.334 | 0.438 | 0.276 | 0.228 | 0.275 | 0.269 | 0.251 | 0.306 | 0.23 | 0.937 | 0.724 | 0.696 | 0.7 | 0.469 | 0.627 | 0.574 | 0.575 | 0.511 | 0.344
12 | NCI-H520 | 0.273 | 0.246 | 0.234 | 0.228 | 0.15 | 0.459 | 0.444 | 0.468 | 0.434 | 0.447 | 0.389 | 0.547 | 0.545 | 0.486 | 0.202 | 0.366 | 0.316 | 0.322 | 0.301 | 0.255
13 | NCI-H1650 | 0.642 | 0.528 | 0.755 | 0.348 | 0.583 | 0.485 | 0.414 | 0.489 | 0.421 | 0.517 | 0.224 | 0.222 | 0.224 | 0.207 | 0.216 | 0.9 | 0.797 | 0.824 | 0.837 | 0.826
14 | NCI-H1355 | 0.498 | 0.409 | 0.322 | 0.214 | 0.204 | 0.596 | 0.566 | 0.599 | 0.586 | 0.656 | 1.26 | 1.19 | 1.05 | 1.09 | 0.804 | 0.814 | 0.732 | 0.694 | 0.608 | 0.31
15 | NCI-H1915 | 0.965 | 0.914 | 0.705 | 0.37 | 0.247 | 0.466 | 0.425 | 0.446 | 0.428 | 0.513 | 0.96 | 0.95 | 0.887 | 0.816 | 0.417 | 0.256 | 0.248 | 0.235 | 0.224 | 0.136
16 | BEN | 0.627 | 0.696 | 0.69 | 0.625 | 0.55 | 0.528 | 0.582 | 0.48 | 0.5 | 0.588 | 0.993 | 0.878 | 0.777 | 0.85 | 0.547 | 1.04 | 1.09 | 1.16 | 1.19 | 0.846
